Values of other authors, collected in patent publication US8071133B2, “Oral dosage forms of water insoluble drugs and methods of making the same” (Stiefel Laboratories, Inc., priority 2001, dated 2011).

For `CC(C)(C)NC(=O)[C@@H]1C[C@@H]2CCCC[C@@H]2CN1C[C@@H](O)[C@H](Cc1ccccc1)NC(=O)[C@H](CC(N)=O)NC(=O)c1ccc2ccccc2n1` [Saquinavir], which solubility in water is on record?
The solubility in water was “approximately 10 microgram per mL”.
